# The source made the active and inactive calls.
# How the values were obtained:
# [1] = biological target: T1, Calpain-2 catalytic subunit (Sus scrofa, UniProt P43367); test: pig calpain II inhibitor potency, dose response, biochemical, fluorogenic peptide substrate (AID 1420); format: functional
# T1 sequence (P43367 whole entry): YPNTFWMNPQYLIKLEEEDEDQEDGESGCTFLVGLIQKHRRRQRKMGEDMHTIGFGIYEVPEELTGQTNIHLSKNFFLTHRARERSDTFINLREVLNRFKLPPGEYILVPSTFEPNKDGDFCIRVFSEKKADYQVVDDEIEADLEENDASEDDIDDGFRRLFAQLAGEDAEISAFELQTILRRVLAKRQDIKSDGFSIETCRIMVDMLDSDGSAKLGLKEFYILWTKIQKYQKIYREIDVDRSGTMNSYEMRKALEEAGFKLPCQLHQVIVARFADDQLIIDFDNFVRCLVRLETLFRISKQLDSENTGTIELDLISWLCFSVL
# [2] = cytotoxicity in HPDE-C7 cells, cell-based, fluorescence, HTS (AID 430); format: functional; settings: Homo sapiens
# [3] = biological target: T2, E3 ubiquitin-protein ligase XIAP (Homo sapiens, UniProt P98170); test: XIAP antagonists, biochemical, IAP family, fluorescence polarization (AID 1018); format: functional
# [4] = cytotoxicity in KRAS-transformed pancreatic duct cells, primary screen, cell-based, fluorescence, HTS (AID 431); format: functional; settings: Homo sapiens;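 also: cell line used: HPDE-C7K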
# [5] = biological target: T2, E3 ubiquitin-protein ligase XIAP; test: Counter Screen using XIAP-Bir3 for Chemical Antagonists of Bir1/2 domains of IAP-family anti-apoptotic proteins. [Related pubchem assays (depositor defined):AID1018, AID1449, AID1514, AID1638, AID1749, AID1750, AID488957, AID488963]
# [6] = biological target: T3, Kappa-type opioid receptor (Homo sapiens, UniProt P41145); test: KOR antagonists by imaging, SAR follow-up, image-based (AID 2348); format: functional
# Mu-type opioid receptor [7] = biological target: T4, Mu-type opioid receptor (Homo sapiens, UniProt P35372); test: MOR antagonists, SAR follow-up, image-based (AID 2420); format: functional;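 also: compounds added before stimulation of receptor with agonist DAMGO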
# [8] = biological target: T5, Delta-type opioid receptor (Homo sapiens, UniProt P41143); test: DOR agonists, SAR follow-up, image-based (AID 2370); format: functional
# [9] = biological target: T3, Kappa-type opioid receptor; test: SAR analysis of small molecule agonists of the kappa opioid receptor via a luminescent beta-arrestin assay. [Related pubchem assays (depositor defined):AID1777, AID1786, AID1966, AID2133, AID2136, AID2348, AID2352, AID2357, AID2359, AID2370, AID2420, AID2478, AID2491, AID2492, AID2493, AID2497, AID2498, AID2500, AID449737, AID488822, AID488842]; format: functional
# [10] = biological target: T3, Kappa-type opioid receptor; test: KOR agonist analogs, imaging readout, SAR follow-up, image-based (AID 2359); format: functional
# Mu-type opioid receptor [11] = biological target: T4, Mu-type opioid receptor; test: MOR agonists by imaging, SAR follow-up, image-based (AID 2352); format: functional
# [12] = biological target: T5, Delta-type opioid receptor; test: DOR antagonists, SAR follow-up, image-based (AID 2357); format: functional
# [13] = biological target: Intestinal-type alkaline phosphatase (Mus musculus, UniProt P24822); test: PubChem AID 488874; format: functional
# [14] = biological target: T6, Intestinal-type alkaline phosphatase (Homo sapiens, UniProt P09923); test: human intestinal alkaline phosphatase activators, dose response, biochemical, luminescence, uHTS hits (AID 463120); format: functional
# [15] = biological target: T7, Alkaline phosphatase, tissue-nonspecific isozyme (Homo sapiens, UniProt P05186); test: TNAP enzyme activators, dose response, selectivity assay for human IAP activator project, biochemical, TNAP isozyme, human IAP uHTS hits (AID 488886); format: functional;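 also: potency of compounds raising TNAP activity as a selectivity check on IAP activators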
# T7 sequence (P05186 whole entry): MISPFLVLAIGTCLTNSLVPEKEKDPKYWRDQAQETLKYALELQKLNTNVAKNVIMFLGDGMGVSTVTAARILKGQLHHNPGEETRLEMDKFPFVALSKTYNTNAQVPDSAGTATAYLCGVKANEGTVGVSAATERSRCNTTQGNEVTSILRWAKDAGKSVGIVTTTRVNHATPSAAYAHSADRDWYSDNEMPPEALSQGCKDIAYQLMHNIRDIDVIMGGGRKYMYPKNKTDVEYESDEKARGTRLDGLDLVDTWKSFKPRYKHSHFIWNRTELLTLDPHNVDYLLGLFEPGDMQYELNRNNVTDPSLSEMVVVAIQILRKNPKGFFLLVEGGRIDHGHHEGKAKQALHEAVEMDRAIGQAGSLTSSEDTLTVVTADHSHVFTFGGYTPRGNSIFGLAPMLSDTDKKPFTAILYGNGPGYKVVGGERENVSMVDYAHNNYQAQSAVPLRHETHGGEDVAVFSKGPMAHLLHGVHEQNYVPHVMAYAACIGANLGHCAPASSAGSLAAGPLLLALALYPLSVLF
# [16] = biological target: T8, RNA-binding protein pos-1 (Caenorhabditis elegans, UniProt G5EF15); test: inhibitors of POS-1/mex-3 RNA binding, dose response, biochemical, fluorescence polarization (AID 1964);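 also: purified POS-1 fused to maltose binding protein made in E. coli; potency of compounds blocking POS-1 binding to fluorescent RNA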
# T8 sequence (G5EF15 whole entry): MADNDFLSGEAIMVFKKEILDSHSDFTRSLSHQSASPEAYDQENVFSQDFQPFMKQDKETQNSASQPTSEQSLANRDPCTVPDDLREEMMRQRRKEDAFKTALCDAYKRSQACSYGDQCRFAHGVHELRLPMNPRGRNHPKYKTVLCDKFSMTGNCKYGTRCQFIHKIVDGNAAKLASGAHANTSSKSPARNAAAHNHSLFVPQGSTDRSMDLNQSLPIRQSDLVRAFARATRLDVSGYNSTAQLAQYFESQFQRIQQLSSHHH
# [17] = biological target: T6, Intestinal-type alkaline phosphatase; test: human IAP activators, dose response, biochemical, luminescent, uHTS hits, set 2 (AID 488817); format: functional;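 also: potency of activators that raise enzyme activity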
# [18] = biological target: T9, Corticotropin-releasing factor receptor 2/Corticotropin-releasing factor-binding protein (Homo sapiens, UniProt P24387+Q13324); test: activators of CRF receptor 2 with binding protein – uHTS hits, confirmation (AID 602473); format: functional; settings: read-out: EC50_Mean
# T9 sequence (Q13324 whole entry): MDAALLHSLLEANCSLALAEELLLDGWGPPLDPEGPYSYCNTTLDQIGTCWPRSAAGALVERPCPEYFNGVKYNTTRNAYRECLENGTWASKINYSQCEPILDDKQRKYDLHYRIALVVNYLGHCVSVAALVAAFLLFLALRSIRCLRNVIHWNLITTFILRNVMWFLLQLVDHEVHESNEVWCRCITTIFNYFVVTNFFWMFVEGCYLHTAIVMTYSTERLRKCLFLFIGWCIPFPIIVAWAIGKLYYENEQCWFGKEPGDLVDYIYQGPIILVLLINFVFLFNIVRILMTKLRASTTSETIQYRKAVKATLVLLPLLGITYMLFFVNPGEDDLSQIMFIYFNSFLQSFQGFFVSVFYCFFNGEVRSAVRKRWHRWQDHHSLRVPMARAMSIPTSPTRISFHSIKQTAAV
# T9 sequence (P24387 whole entry): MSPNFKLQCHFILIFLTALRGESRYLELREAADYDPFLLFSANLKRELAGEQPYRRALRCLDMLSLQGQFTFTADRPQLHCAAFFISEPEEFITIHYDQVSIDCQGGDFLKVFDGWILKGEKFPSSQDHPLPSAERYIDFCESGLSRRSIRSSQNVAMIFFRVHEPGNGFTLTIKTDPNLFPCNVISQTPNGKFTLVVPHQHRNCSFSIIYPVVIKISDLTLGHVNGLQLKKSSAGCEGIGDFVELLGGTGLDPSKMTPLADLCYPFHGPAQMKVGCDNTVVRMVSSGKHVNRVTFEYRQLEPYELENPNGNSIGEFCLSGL
# Troponin, cardiac muscle = Troponin, cardiac muscle (Homo sapiens, UniProt P19429+P45379+P63316); test: Fluorescence-based biochemical high throughput dose response assay for activators of the calcium sensitivity of cardiac Regulated Thin Filaments (RTF). [Related pubchem assays (depositor defined):AID493008, AID493018, AID504382, AID504383]; format: protein-complex assay
# [19] = biological target: T10, Runt-related transcription factor 1/Core-binding factor subunit beta (Homo sapiens, UniProt Q01196+Q13951); test: inhibitors of RUNX1 Runt–CBFb-SMMHC binding, biochemical, TR-FRET (AID 1438); format: protein assay
# [20] = biological target: T10, Runt-related transcription factor 1/Core-binding factor subunit beta; test: inhibitors of RUNX1 Runt–CBFb-SMMHC binding, primary screen, biochemical, FRET, Cerulean-Runt, Venus-CBFb-SMMHC, uHTS (AID 1434); format: protein assay;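 also: partner is the CBFb-SMMHC leukemia fusion protein rather than wild-type CBFb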
# [21] = biological target: T11, Mannose-6-phosphate isomerase (Homo sapiens, UniProt P34949); test: PMI enzyme inhibitors, confirmation, biochemical, fluorescence intensity (AID 1535)
# T11 sequence (P34949 whole entry): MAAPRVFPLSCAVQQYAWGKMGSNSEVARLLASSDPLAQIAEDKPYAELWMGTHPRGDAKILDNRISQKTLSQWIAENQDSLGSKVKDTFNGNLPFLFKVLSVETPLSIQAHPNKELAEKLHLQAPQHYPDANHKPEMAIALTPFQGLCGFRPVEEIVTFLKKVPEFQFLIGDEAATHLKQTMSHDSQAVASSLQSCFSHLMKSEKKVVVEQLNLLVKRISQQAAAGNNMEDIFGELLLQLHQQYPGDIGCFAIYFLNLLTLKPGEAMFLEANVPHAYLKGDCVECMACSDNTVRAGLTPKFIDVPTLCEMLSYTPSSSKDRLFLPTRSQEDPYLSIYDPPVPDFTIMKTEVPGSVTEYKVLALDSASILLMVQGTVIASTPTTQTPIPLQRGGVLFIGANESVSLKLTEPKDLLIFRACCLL
# Phosphomannomutase 2 = Phosphomannomutase 2 (Homo sapiens, UniProt O15305); test: Counter screen SAR assay for PMM2 inhibitors via a fluorescence intensity assay. [Related pubchem assays (depositor defined):AID1545, AID1574]
# [22] = biological target: T12, Tyrosine-protein phosphatase non-receptor type 7 (Homo sapiens, UniProt P35236); test: HePTP (PTPN7) phosphatase inhibitor potency, SAR follow-up, biochemical, set 2 (AID 449736); format: functional
# T12 sequence (P35236 whole entry): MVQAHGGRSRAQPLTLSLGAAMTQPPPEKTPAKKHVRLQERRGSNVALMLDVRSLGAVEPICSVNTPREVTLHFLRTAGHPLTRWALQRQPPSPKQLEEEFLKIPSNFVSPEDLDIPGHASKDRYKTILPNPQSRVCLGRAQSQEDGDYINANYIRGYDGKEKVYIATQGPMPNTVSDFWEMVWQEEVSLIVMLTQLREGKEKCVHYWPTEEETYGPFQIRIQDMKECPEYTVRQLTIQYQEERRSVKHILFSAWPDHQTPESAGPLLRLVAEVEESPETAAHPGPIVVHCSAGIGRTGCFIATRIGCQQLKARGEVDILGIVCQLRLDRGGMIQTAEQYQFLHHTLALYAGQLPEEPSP
# [23] = biological target: Sphingosine 1-phosphate receptor 1 (Homo sapiens, UniProt P21453); test: Fluorescence-based counterscreen assay for S1P4 agonists: Cell-based dose response high throughput screening assay to identify agonists of the Sphingosine 1-Phosphate Receptor 1 (S1P1). [Related pubchem assays (depositor defined):AID1509, AID1523, AID1801, AID463107, AID463118, AID463119, AID463122, AID463123, AID463129, AID463225, AID504400, AID504460]; format: functional
# [24] = biological target: T13, Sphingosine 1-phosphate receptor 4 (Homo sapiens, UniProt O95977); test: Fluorescence dose response cell-based high throughput screening assay for agonists of the Sphingosine 1-Phosphate Receptor 4 (S1P4). [Related pubchem assays: 1509 (Primary screen.), 1523 (Confirmation screen in triplicates.)]; format: functional
# T13 sequence (O95977 whole entry): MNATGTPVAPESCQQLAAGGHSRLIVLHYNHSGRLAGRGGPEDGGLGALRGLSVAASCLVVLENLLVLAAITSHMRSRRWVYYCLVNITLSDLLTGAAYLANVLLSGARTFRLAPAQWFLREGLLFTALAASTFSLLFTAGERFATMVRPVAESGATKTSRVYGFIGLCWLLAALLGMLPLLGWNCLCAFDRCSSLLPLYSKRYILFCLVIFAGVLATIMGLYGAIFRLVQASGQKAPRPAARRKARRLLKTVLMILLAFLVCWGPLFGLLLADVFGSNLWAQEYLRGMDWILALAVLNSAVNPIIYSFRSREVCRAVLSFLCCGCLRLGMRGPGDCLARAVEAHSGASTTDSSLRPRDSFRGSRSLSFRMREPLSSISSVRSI
smiles,measurement,setting,value
COc1ccccc1-c1nnc(SCC(=O)NCc2c(C)c(Cl)cc(C(C)C)c2O)o1,IC50,[1],15.8 µM (not active)
same,EC50,[2],10.1 µM (active)
same,IC50,[3],> 100 µM (not active)
same,EC50,[4],12 µM (active)
same,IC50,[5],> 100 µM (inactive)
COc1ccc(C)cc1NC(=O)CSc1nnc(-c2ccccn2)n1Cc1ccco1,IC50,[6],> 32 µM (inactive)
same,IC50,Mu-type opioid receptor [7],> 32 µM (inactive)
same,EC50,[8],> 32 µM (inactive)
same,EC50,[9],> 10 µM (inactive)
same,EC50,[10],> 32 µM (inactive)
same,EC50,Mu-type opioid receptor [11],> 32 µM (inactive)
same,IC50,[12],> 32 µM (inactive)
Cc1n[nH]c(S/C(=C/c2ccc(-c3ccc(Cl)cc3)o2)C(=O)O)n1,IC50,[13],54.3 µM (active)
same,EC50,[14],12.8 µM (active)
same,EC50,[15],> 100 µM (inactive)
same,EC50,[16],25.4 µM (active)
same,EC50,[17],12.1 µM (active)
Cc1ccc[n+](-c2[n-]c(=O)sc2C=O)c1,EC50,[18],11.5 µM (active)
same,EC50,"Troponin, cardiac muscle",2.18 µM (active)
CCNc1sc(C(=O)c2cccs2)c(N)c1-c1nc2ccccc2s1,IC50,[19],63.2 µM (inactive)
same,IC50,[20],> 100 µM (inactive)
Clc1nss/c1=N\c1ccc2ncccc2c1,IC50,[21],23.6 µM (active)
same,IC50,Phosphomannomutase 2,> 100 µM (inactive)
NS(=O)(=O)c1ccc(NC(=O)N2CCN(Cc3ccccc3)CC2)cc1,IC50,[22],> 100 µM (inactive)
CCCN(CCC)c1ccc(/C=C/c2ccc3cc(OCC)ccc3n2)cc1,EC50,[23],> 5.53 µM (inactive)
same,EC50,[24],> 49.8 µM (not active)
